In brackets after ≈: the same amount, converted by molar mass.
Experiments:
[1] = tested on: Staphylococcus aureus ATCC 29213 (MSSA); test: minimum inhibitory concentration; extreme values may be limits of the assay
Outline: (§1)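 Methicillin-susceptible and methicillin-resistant Staphylococcus aureus were tested by broth microdilution in 96-well plates, following CLSI guidance with a resazurin redox read-out. Compounds were tested from 0 to 100 µM and incubated with bacteria for 24 h at 37°C, then 30 µl of 0.015% resazurin was added for 2–4 h, with positive controls on each plate. The minimum inhibitory concentration was the lowest concentration that stayed blue rather than turning pink. Runs were done at least twice in triplicate.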

[2] = tested on: Staphylococcus aureus ATCC 700699 (MRSA); test: as above
Outline: as §1

Row | Compound | minimum inhibitory concentration [1] | minimum inhibitory concentration [2]
1 | COc1ccc(N(CCc2cccc(C)n2)C(C)=O)cc1 | > 50 µM | > 50 µM
2 | O=C(NCc1cc(Cl)cc(Cl)c1)c1c(C(F)(F)F)nc2ccccn12 | > 50 µM | > 50 µM
3 | CC(C)(C)c1ccc(N[C@@H]2CCCC[C@H]2NC(=O)c2ccco2)cc1 | > 50 µM | > 50 µM
4 | Nc1ncnc2c1c(-c1cnc3ccccc3c1)nn2CC1CCNCC1 | > 50 µM | > 50 µM
5 | Cc1ccc(NC(=O)CC2COc3ccccc3O2)cc1Cl (stereo not given) | > 50 µM | > 50 µM
6 | CCCCOC(=O)Nc1cc2nc(C3CCCCC3)[nH]c2cc1N1CCCC1 | > 50 µM | > 50 µM
7 | CCOc1ccc(OCC(=O)Nc2cc(C)cc(C)c2)cc1 | > 50 µM | > 50 µM
8 | c1ccc(Oc2ccc(-c3cc(C4CCOCC4)[nH]n3)cc2)cc1 | > 50 µM | > 50 µM
9 | Cc1cc(Nc2ccc(C(F)(F)F)cc2)n2ccnc2n1 | > 50 µM | > 50 µM
10 | CCc1ccc(S(=O)(=O)Nc2cc(CN3CCN(CCC(C)C)CC3)ccc2C)cc1 | > 50 µM | > 50 µM
11 | CC(Oc1ccccc1)C(=O)Nc1nc(-c2ccccn2)cs1 (stereo not given) | 50 µM (≈ 16.3 µg/mL) | 50 µM (≈ 16.3 µg/mL)
12 | O=C1N(Cc2cc3ccccc3s2)CC2CN(Cc3ccccc3)CCN12 (stereo not given) | > 50 µM | > 50 µM
13 | O=C(C(Cc1c[nH]c2ccccc12)NS(=O)(=O)c1ccc(Cl)cc1)N1CCCCC1 (stereo not given) | > 50 µM | > 50 µM
14 | Cc1cc(NCC(C)C)c2[nH]nc(-c3ccccc3)c2n1 | > 50 µM | > 50 µM
15 | CS(=O)(=O)N1CCC(Cn2nc(Cc3cccc4ccccc34)c3c(N)ncnc32)CC1 | > 50 µM | > 50 µM
16 | CNC(=O)C1Cc2ccccc2N1C(=O)Cc1ccc(F)cc1 (stereo not given) | > 50 µM | > 50 µM
17 | COc1ccc(CCN2CCC(NCc3cccc(N(C)C)c3)CC2)cc1 | > 50 µM | > 50 µM
18 | Cc1nn(Cc2ccccc2)c(Cl)c1C(=O)NC1CCCCCC1 | > 50 µM | > 50 µM
19 | O=C1[C@@H](Oc2ccccc2)[C@@H](c2ccc(Cl)cc2)N1CCn1cnc2c(NCc3ccccc3)ncnc21 | > 50 µM | > 50 µM
20 | CC(=O)N1CCN(c2ccc(Oc3ccc(Cl)cc3O)cc2)CC1 | > 50 µM | > 50 µM
21 | CC(C)(C)c1cc(C(=O)Nc2cccnc2)cc(C(=O)Nc2cccnc2)c1 | > 50 µM | > 50 µM
22 | COc1cc2ncnc(NC3CCN(Cc4ccccc4)CC3)c2cc1OC | > 50 µM | > 50 µM
23 | COCC(C)NC(=O)CSc1ncnc2sc(-c3ccccc3)cc12 (stereo not given) | > 50 µM | > 50 µM
24 | CCOc1ccc(-c2nc(CNCCc3ccc(F)cc3)cs2)cc1 | > 50 µM | > 50 µM

Row | Compound | minimum inhibitory concentration [1] | minimum inhibitory concentration [2]
25 | O=C(C1CCCCC1)N1CC(=O)N2CCc3ccccc3C2C1 (stereo not given) | > 50 µM | > 50 µM
26 | CS(=O)(=O)N1CCC(CCn2nc(Cc3cccc4ccccc34)c3c(N)ncnc32)CC1 | > 50 µM | > 50 µM
27 | Cc1ccc(-c2nc(CN(Cc3ccccn3)C(C)C)cs2)o1 | > 50 µM | > 50 µM
28 | c1ccc(Oc2ccc(-c3cc(CN4CCOCC4)[nH]n3)cc2)cc1 | > 50 µM | > 50 µM
29 | COc1ccc(Nc2ccccc2NC(=O)c2ccc(O)nc2)cc1 | > 50 µM | > 50 µM
30 | Clc1cccc(CO[C@H]2CCc3ccccc3[C@@H]2n2ccnn2)c1 | > 50 µM | > 50 µM
31 | O=C(Nc1cccnc1)c1c(O)c2cccc3c2n(c1=O)CC3 | 25 µM (≈ 7.68 µg/mL) | 50 µM (≈ 15.4 µg/mL)
32 | Cn1ncc2c(N3CCOCC3)nc(NCCc3c[nH]c4ccccc34)nc21 | > 50 µM | > 50 µM
33 | COc1cc(C2=NCCN2)cc2cc(-c3ccc(C4=NCCN4)cc3)oc12 | > 50 µM | > 50 µM
34 | CC(C)(C)n1nc(Cc2cccc3ccccc23)c2c(N)ncnc21 | > 50 µM | > 50 µM
35 | CCCS(=O)(=O)N1CCC(CO)(Cc2ccccc2C(F)(F)F)CC1 | > 50 µM | > 50 µM
36 | CNc1cc(C)nc(C2CN(C(=O)c3n[nH]c4ccccc34)CCO2)c1 (stereo not given) | > 50 µM | > 50 µM
37 | COc1cc(CN2CCC3(C=Cc4ccccc43)CC2)cc2c1OCO2 | > 50 µM | > 50 µM
38 | COc1ccc(N(CCc2cccc(C)n2)C(=O)C2CCCCC2)cc1 | > 50 µM | > 50 µM
39 | O=C(NC1CC1)c1ccc(CSCc2ccccc2Cl)o1 | > 50 µM | > 50 µM
40 | CNC(=O)c1cc(S(=O)(=O)N2CCN(c3ccccn3)CC2)cs1 | > 50 µM | > 50 µM
41 | O=C(Nc1cccc(Cl)c1)c1cnc(N2CCN(c3ccncc3)CC2)c(Cl)c1 | > 50 µM | > 50 µM
42 | Cc1ncc(-c2ccnc(Nc3ccc(S(C)(=O)=O)cc3)n2)n1C(C)C | > 50 µM | > 50 µM
43 | COc1cccc(OCC(=O)c2ccc(Br)cc2)c1 | > 50 µM | > 50 µM
44 | CCc1ccc(C(NCc2nc(N)nc(N(C)C)n2)C(C)C)cc1 (stereo not given) | > 50 µM | > 50 µM
45 | Cc1cccc(NC(=O)c2cc(S(=O)(=O)N(C)c3ccc(F)cc3)ccc2Cl)n1 | > 50 µM | > 50 µM
46 | O=C(Nc1ccc(F)c(-c2nc3cc(-c4ccccc4)cnc3[nH]2)c1)N1CCCC1 | > 50 µM | > 50 µM
47 | Clc1ccc(-n2cc(COc3ccnc4ccccc34)nn2)cc1 | > 50 µM | > 50 µM
48 | C[C@H](c1ccc2c(c1)CCCC2)N(C)c1ncc2c(N)nc(N)nc2n1 | 50 µM (≈ 17.5 µg/mL) | 50 µM (≈ 17.5 µg/mL)

Row | Compound | minimum inhibitory concentration [1] | minimum inhibitory concentration [2]
49 | Cc1c[nH]c(CCNC(=O)c2cc(-c3ccc(Cl)cc3)cs2)n1 | > 50 µM | > 50 µM
50 | CN1CCCN(C(c2ccccc2)c2ccc(Cl)cc2)CC1 (stereo not given) | > 50 µM | > 50 µM
51 | O=C(NC1CC1)c1ccc(N2CCOc3ccc(Cl)cc32)s1 | > 50 µM | > 50 µM
52 | Cc1ccc(C(=O)Nc2ccc(S(=O)(=O)O)c3cc(S(=O)(=O)O)cc(S(=O)(=O)O)c23)cc1NC(=O)c1cccc(NC(=O)Nc2cccc(C(=O)Nc3cc(C(=O)Nc4ccc(S(=O)(=O)O)c5cc(S(=O)(=O)O)cc(S(=O)(=O)O)c45)ccc3C)c2)c1 | > 50 µM | > 50 µM
53 | Cc1ccc(NC(=O)c2nc[nH]c2C(=O)Nc2nc3ccccc3[nH]2)c(C)c1 | > 50 µM | > 50 µM
54 | N#Cc1nc(-c2ccccc2F)oc1NCCc1ccccc1 | > 50 µM | > 50 µM
55 | CC1(C)OB(O)c2ccc(C3=NOC(c4cc(Cl)c(F)c(Cl)c4)(C(F)(F)F)C3)cc21 (stereo not given) | 6.25 µM (≈ 2.89 µg/mL) | 6.25 µM (≈ 2.89 µg/mL)
56 | COC(=O)Nc1nc2cc(C(=O)c3ccccc3)ccc2[nH]1 | > 50 µM | > 50 µM
57 | COC(=O)c1c(NC(=O)c2cc3ccccc3oc2=O)sc2c1CCN(Cc1ccccc1)C2 | > 50 µM | > 50 µM
58 | C[C@H]1COc2c(N3CCN(C)CC3)c(F)cc3c(=O)c(C(=O)O)cn1c23 | 0.78 µM (≈ 0.282 µg/mL) | 50 µM (≈ 18.1 µg/mL)
59 | COc1ccc2nc(C)cc(OCC(=O)Nc3ccccc3OC)c2c1 | > 50 µM | > 50 µM
60 | CCOc1ccc2cc(-c3nn(C(C)(C)C)c(N)c3C(N)=O)cnc2c1 | > 50 µM | > 50 µM
61 | Nc1ncnc2[nH]nc(Cc3cccc4ccccc34)c12 | > 50 µM | > 50 µM
62 | CC(C)(C)c1cc(C(=O)N2CCN(c3nccnc3C#N)CC2)n(Cc2ccccc2)n1 | > 50 µM | > 50 µM
63 | CCOc1ccccc1C(=O)Nc1cccc(-c2nc3ncccn3c2C)c1 | > 50 µM | > 50 µM
64 | Cc1cccc(Cn2ccc(NC(=O)c3ccc4c(c3)OCO4)n2)c1 | > 50 µM | > 50 µM
65 | CS(=O)(=O)c1ccccc1C(=O)N(Cc1ccccc1)c1ccccc1 | > 50 µM | > 50 µM
66 | O=C(Nc1ccccc1-c1nc2c(C(=O)O)cccc2o1)c1ccccc1 | > 50 µM | > 50 µM
67 | CC(c1cc(Cl)cc(Cl)c1)N(C)c1ncc2c(N)nc(N)nc2n1 (stereo not given) | 50 µM (≈ 18.2 µg/mL) | 50 µM (≈ 18.2 µg/mL)
68 | O=C(COc1cccc(F)c1)Nc1nc(-c2ccccn2)cs1 | > 50 µM | > 50 µM
69 | O=C(Nc1nc(-c2ccccn2)cs1)c1cncn1-c1ccccc1 | > 50 µM | > 50 µM
70 | CN(C(=O)c1cc2c(-c3cncnc3)cccc2[nH]1)c1ccccc1 | > 50 µM | > 50 µM

Source: the supplement of paper PMC6206229
